# Experimental data published in US20030004172A1, “Fused pyrimidinone matrix metalloproteinase inhibitors” (priority 2001, published 2003).
# Target: MMP-13CD (catalytic domain of collagenase-3) (Homo sapiens, UniProt P45452)
# Test: Thiopeptolide substrate hydrolysis inhibition assay, MMP-13CD
# Assay type: biochemical
# Conditions: Table I; thiopeptolide substrate, HEPES pH 7.0, 22° C.; read-out: MMP-13CD IC50
# Source text: Thiopeptolide substrates show virtually no decomposition or hydrolysis at or below neutral pH in the absence of a matrix metalloproteinase enzyme.
row,Structure (SMILES),IC50 [µM]
1,"CC(CO)Cn1c(=O)c2cc(C(=O)OCc3ccccc3)sc2n(C)c1=O (stereo not shown) [Example 134, 3-(3-Hydroxy-2-methyl-propyl)-1-methyl-2,4-dioxo-1,2,3,4-tetrahydro-thieno[2,3-d]pyrimidine-6-carboxylic acid benzyl ester]",1.5
2,"CC(C)Cn1c(=O)c2cc(C(=O)OCc3ccccc3)sc2n(C)c1=O [Example 135, 3-Isobutyl-1-methyl-2,4-dioxo-1,2,3,4-tetrahydro-thieno[2,3-d]pyrimidine-6-carboxylic acid benzyl ester]",0.086
3,"Cn1c(=O)n(Cc2ccc(Cl)nc2)c(=O)c2cc(C(=O)OCc3ccccc3)sc21 [Example 136, 3-(6-Chloro-pyridin-3-ylmethyl)-1-methyl-2,4-dioxo-1,2,3,4tetrahydro-thieno[2,3-d]pyrimidine-6-carboxylic acid benzyl ester]",0.051
4,"Cn1c(=O)n(Cc2ccccc2CS(=O)(=O)c2ccccc2)c(=O)c2cc(C(=O)OCc3ccccc3)sc21 [Example 137, 3-(2-Benzenesulfonylmethyl-benzyl)-1-methyl-2,4-dioxo-1,2,3,4tetrahydro-thieno[2,3-d]pyrimidine-6-carboxylic acid benzyl ester]",8.3
5,"Cn1c(=O)n(Cc2cccc3ccccc23)c(=O)c2cc(C(=O)OCc3ccccc3)sc21 [Example 138, 1-Methyl-3-naphthalen-1-ylmethyl-2,4-dioxo-1,2,3,4-tetrahydro-thieno[2,3-d]pyrimidine-6-carboxylic acid benzyl ester]",0.66
6,"Cn1c(=O)n(Cc2ccccc2C(F)(F)F)c(=O)c2cc(C(=O)OCc3ccccc3)sc21 [Example 139, 1-Methyl-2,4-dioxo-3-(2-trifluoromethyl-benzyl)-1,2,3,4-tetrahydro-thieno[2,3-d]pyrimidine-6-carboxylic acid benzyl ester]",0.25
7,Cn1c(=O)n(Cc2cccc(Cl)c2)c(=O)c2cc(C(=O)OCc3ccccc3)sc21 [Example 140],0.017
8,"CCn1c(=O)c2cc(C(=O)OCc3ccccc3)sc2n(C)c1=O [Example 142, 3-Ethyl-1-methyl-2,4-dioxo-1,2,3,4-tetrahydro-thieno[2,3-d]pyrimidine-6-carboxylic acid benzyl ester]",0.39
9,"Cn1c(=O)n(CCCc2ccccc2)c(=O)c2cc(C(=O)OCc3ccccc3)sc21 [Example 143, 1-Methyl-2,4-dioxo-3-(3-phenyl-propyl)-1,2,3,4-tetrahydro-thieno[2,3-d]pyrimidine-6-carboxylic acid benzyl ester]",0.28
10,"Cn1c(=O)n(CCS(=O)(=O)c2ccc(Cl)cc2)c(=O)c2cc(C(=O)OCc3ccccc3)sc21 [Example 144, 3-[2-(4-Chloro-benzenesulfonyl)-ethyl]-1-methyl-2,4-dioxo-1,2,3,4-tetrahydro-thieno[2,3-d]pyrimidine-6-carboxylic acid benzyl ester]",0.003
11,"CC(=O)OCCn1c(=O)c2cc(C(=O)OCc3ccccc3)sc2n(C)c1=O [Example 145, 3-(2-Acetoxy-ethyl)-1-methyl-2,4-dioxo-1,2,3,4-tetrahydro-thieno[2,3-d]pyrimidine-6-carboxylic acid benzyl ester]",1.3
12,"Cn1c(=O)n(Cc2ccccc2)c(=O)c2cc(C(=O)OCCOc3ccccc3)sc21 [Example 146, 3-Benzyl-1-methyl-2,4-dioxo-1,2,3,4-tetrahydro-thieno[2,3-d]pyrimidine-6-carboxylic acid 2-phenoxyethyl ester]",47
13,"Cn1c(=O)n(Cc2ccccc2)c(=O)c2cc(C(=O)NCc3ccccc3)sc21 [Example 148, 3-Benzyl-1-methyl-2,4-dioxo-1,2,3,4-tetrahydro-thieno[2,3-d]pyrimidine-6-carboxylic acid benzyl amide]",0.54
14,"Cn1c(=O)n(Cc2ccccc2)c(=O)c2cc(C(=O)OCc3c(Cl)cccc3Cl)sc21 [Example 149, 3-Benzyl-1-methyl-2,4-dioxo-1,2,3,4-tetrahydro-thieno[2,3-d]pyrimidine-6-carboxylic acid 2,6-dichloro-benzyl ester]",15
15,"CCCCOC(=O)c1cc2c(=O)n(Cc3ccccc3)c(=O)n(C)c2s1 [Example 150, 3-Benzyl-1-methyl-2,4-dioxo-1,2,3,4-tetrahydro-thieno[2,3-d]pyrimidine-6-carboxylic acid butyl ester]",13
16,"Cn1c(=O)n(Cc2ccccc2)c(=O)c2cc(C(=O)OCC3COc4ccccc4O3)sc21 (stereo not shown) [Example 151, 3-Benzyl-1-methyl-2,4-dioxo-1,2,3,4-tetrahydro-thieno[2,3-d]pyrimidine-6-carboxylic acid 2,3-dihydro-1,4-benzodioxin-2-ylmethyl ester]",> 100
17,"CCN(CC)CC(C)OC(=O)c1cc2c(=O)n(Cc3ccccc3)c(=O)n(C)c2s1 (stereo not shown) [Example 152, 3-Benzyl-1-methyl-2,4-dioxo-1,2,3,4-tetrahydro-thieno[2,3-d]pyrimidine-6-carboxylic acid 2-diethylamino-1-methyl-ethyl ester]",9.9

row,Structure (SMILES),IC50 [µM]
1,"Cn1c(=O)n(Cc2ccccc2)c(=O)c2cc(C(=O)OCc3ccc(F)cc3)sc21 [Example 153, 3-Benzyl-1-methyl-2,4-dioxo-1,2,3,4-tetrahydro-thieno[2,3-d]pyrimidine-6-carboxylic acid 4-fluoro-benzyl ester]",0.004
2,"CC(C)c1ccc(COC(=O)c2cc3c(=O)n(Cc4ccccc4)c(=O)n(C)c3s2)cc1 [Example 154, 3-Benzyl-1-methyl-2,4-dioxo-1,2,3,4-tetrahydro-thieno[2,3-d]pyrimidine-6-carboxylic acid 4-isopropyl-benzyl ester]",32
3,"Cc1ccc(CCOC(=O)c2cc3c(=O)n(Cc4ccccc4)c(=O)n(C)c3s2)cc1 [Example 155, 3-Benzyl-1-methyl-2,4-dioxo-1,2,3,4-tetrahydro-thieno[2,3-d]pyrimidine-6-carboxylic acid 2-p-tolyl-ethyl ester]",62
4,"Cn1c(=O)n(Cc2ccccc2)c(=O)c2cc(C(=O)OCc3ccc(C(F)(F)F)cc3)sc21 [Example 156, 3-Benzyl-1-methyl-2,4-dioxo-1,2,3,4-tetrahydro-thieno[2,3-d]pyrimidine-6-carboxylic acid 4-trifluoromethyl-benzyl ester]",0.18
5,"Cn1c(=O)n(Cc2ccccc2)c(=O)c2cc(C(=O)OCC3CCC3)sc21 [Example 157, 3-Benzyl-1-methyl-2,4-dioxo-1,2,3,4-tetrahydro-thieno[2,3-d]pyrimidine-6-carboxylic acid cyclobutylmethyl ester]",> 100
6,"Cn1c(=O)n(Cc2ccccc2)c(=O)c2cc(C(=O)OCc3c(F)cccc3F)sc21 [Example 158, 3-Benzyl-1-methyl-2,4-dioxo-1,2,3,4-tetrahydro-thieno[2,3-d]pyrimidine-6-carboxylic acid 2,6-difluoro-benzyl ester]",16
7,"Cn1c(=O)n(Cc2ccccc2)c(=O)c2cc(C(=O)OCCc3ccccc3O)sc21 [Example 159, 3-Benzyl-1-methyl-2,4-dioxo-1,2,3,4-tetrahydro-thieno[2,3-d]pyrimidine-6-carboxylic acid 2-(2-hydroxy-phenyl)-ethyl ester]",30
8,"CN1CCC(OC(=O)c2cc3c(=O)n(Cc4ccccc4)c(=O)n(C)c3s2)CC1 [Example 161, 3-Benzyl-1-methyl-2,4-dioxo-1,2,3,4-tetrahydro-thieno[2,3-d]pyrimidine-6-carboxylic acid 1-methyl-piperidin-4-yl ester]",11
9,"Cn1c(=O)n(Cc2ccccc2)c(=O)c2cc(C(=O)OCc3cccnc3)sc21 [Example 163, 3-Benzyl-1-methyl-2,4-dioxo-1,2,3,4-tetrahydro-thieno[2,3-d]pyrimidine-6-carboxylic acid pyridin-3-ylmethyl ester]",0.016
10,"Cn1c(=O)n(Cc2ccccc2)c(=O)c2cc(C(=O)OCCCc3cccnc3)sc21 [Example 164, 3-Benzyl-1-methyl-2,4-dioxo-1,2,3,4-tetrahydro-thieno[2,3-d]pyrimidine-6-carboxylic acid 3-pyridin-3-yl-propyl ester]",69
11,"CC(CN(C)C)OC(=O)c1cc2c(=O)n(Cc3ccccc3)c(=O)n(C)c2s1 (stereo not shown) [Example 165, 3-Benzyl-1-methyl-2,4-dioxo-1,2,3,4-tetrahydro-thieno[2,3-d]pyrimidine-6-carboxylic acid 2-dimethylamino-1-methyl-ethyl ester]",20
12,"COc1ccc(COC(=O)c2cc3c(=O)n(Cc4ccccc4)c(=O)n(C)c3s2)cc1 [Example 166, 3-Benzyl-1-methyl-2,4-dioxo-1,2,3,4-tetrahydro-thieno[2,3-d]pyrimidine-6-carboxylic acid 4-methoxy-benzyl ester]",0.92
13,"Cn1c(=O)n(Cc2ccccc2)c(=O)c2cc(C(=O)OC3CCOCC3)sc21 [Example 167, 3-Benzyl-1-methyl-2,4-dioxo-1,2,3,4-tetrahydro-thieno[2,3-d]pyrimidine-6-carboxylic acid tetrahydro-pyran-4-yl ester]",26
14,"Cn1c(=O)n(Cc2ccccc2)c(=O)c2cc(C(=O)OCc3ccccc3C(F)(F)F)sc21 [Example 169, 3-Benzyl-1-methyl-2,4-dioxo-1,2,3,4-tetrahydro-thieno[2,3-d]pyrimidine-6-carboxylic acid 2-trifluoromethyl-benzyl ester]",30
15,"Cn1c(=O)n(Cc2ccccc2)c(=O)c2cc(C(=O)OCCOCc3ccccc3)sc21 [Example 170, 3-Benzyl-1-methyl-2,4-dioxo-1,2,3,4-tetrahydro-thieno[2,3-d]pyrimidine-6-carboxylic acid 2-benzyloxy-ethyl ester]",0.72
16,"Cn1c(=O)n(Cc2ccccc2)c(=O)c2cc(C(=O)OCC(Cl)(Cl)Cl)sc21 [Example 171, 3-Benzyl-1-methyl-2,4-dioxo-1,2,3,4-tetrahydro-thieno[2,3-d]pyrimidine-6-carboxylic acid 2,2,2-trichloro-ethyl ester]",14
17,"Cn1c(=O)n(Cc2ccccc2)c(=O)c2cc(C(=O)OCCc3ccccc3)sc21 [Example 172, 3-Benzyl-1-methyl-2,4-dioxo-1,2,3,4-tetrahydro-thieno[2,3-d]pyrimidine-6-carboxylic acid phenethyl ester]",32
